Assay results from US20230097157A1, “Bicyclic Pyridin-2-one and pyrimidin-4-one Derivatives Useful As a Factor XIa Inhibitors” (Janssen Pharmaceutica NV, priority 2021, published 2023).
Like-named read-outs stand apart in the source and are kept apart here.

Key:
human plasma kallikrein = human plasma kallikrein (Homo sapiens, UniProt P03952); assay: Kallikrein inhibition assay (FLINT) utilizing a quenched AMC peptide substrate Z-Gly-Pro-Arg-AMC; format: biochemical; conditions: kinetic (KIN) reads, read-out: Kallikrein KIN Inh IC50
Description: Biological Example 2: Kallikrein Inhibition Assay Utilizing a Quenched AMC Peptide Substrate A fluorescence intensity (FLINT) based assay was used to monitor inhibition of human plasma kallikrein. The peptide substrate, Z-Gly-Pro-Arg-AMC (Purchased from Bachem; Catalog #I-1150) was chosen based on its relatively low KM for kallikrein which enables running the assay at lower substrate concentrations to control background fluorescence.
The Kallikrein FLINT assay was used with the following Z-Gly-Pro-Arg-AMC assay buffer: 50 mM Tris, pH 7.5, 100 mM NaCl, 5 mM CaCl2, 0.1 mg/mL BSA, 0.03% CHAPS. Assay buffer was prepared by mixing all ingredients fresh. 2× Z-Gly-Pro-Arg-AMC peptide substrate was prepared by diluting 10 mM stock into 1× assay buffer for a 100 μM working concentration (50 μM final concentration). The 2× kallikrein stock solution was prepared by diluting 14.76 μM stock in 1× assay buffer for a 4 nM working stock solution (2 nM final concentration).
Test compound(s) were run in an 11-point, 3-fold serial dilution with a final top compound concentration of 1 μM. Final DMSO in assay was 2%. Plasma kallikrein was pre-incubated for 30-minute with compound and then 50 μM substrate was added to initiate the reaction. The assay was run with kinetic (KIN) reads at 5 min intervals over 30 minutes. The time course was linear using 2 nM kallikrein greater than 30 minutes. More specifically, the assay was run as follows: • 100 nL of 0.1 mM test compound was dispensed into black 384-well non-binding Greiner BioOne 784900 plate for 1 μM final concentration; • 5 μL of 1× assay buffer was dispensed to columns 24 (low control) and 5 μL 2× human kallikrein enzyme solution was dispensed to columns 1-23 (column 23 high control); • the plate was centrifuged with a “cover” plate at 500 rpm for 1 min • the plate was pre-incubated for 30 minutes at room temperature with plate covered; • 5 μL of 2× Z-Gly-Pro-Arg-AMC peptide substrate was dispensed into the entire plate, columns 1-24; • the plate was centrifuged with a “cover” plate at 500 rpm for 1 min; • the plate was read monitoring fluorescence intensity on the BMG PHERAStar at room temperature, using fluorescence module 340 nm/440 nm.
(§1) Percent inhibition (IC50) curves were generated per compound tested, and data was analyzed using a 4-parameter logistic fit using GeneData Screener. The relative fluorescence unit (RFU) values were normalized to percent inhibition using the following equation:
% inhibition=((HC−LC)−(compound−LC)/(HC−LC))*100 where LC—low control=mean signal of […] or 100% inhibition of human kallikrein enzyme; HC—high control=mean signal of […]+Z-Gly-Pro-Arg-AMC peptide substrate with DMSO only.
(§2) An 11-point dose response curve for the test compound(s) was generated using GENDATA to determine IC50 value based on the following equation:
(§3) Y=Bottom+(Top−Bottom)/(1+10^((log IC50−X)*HillSlope)) where Y is the % inhibition in the presence of X inhibitor concentration, Top=high control=mean signal of human kallikrein enzyme+Z-Gly-Pro-Arg-AMC peptide substrate with DMSO only; Bottom=low control−mean signal of no human kallikrein enzyme or 100% inhibition of human kallikrein enzyme; HillSlope−Hill coefficient; and IC50=concentration of compound with 50% inhibition in relation to top/high control.

Factor XIa = Factor XIa (Homo sapiens, UniProt P03951); assay: Factor XIa inhibition assay (FLINT) utilizing a fluorophore-quencher pair peptide substrate 5Fam-[…]-K5Tamra; format: biochemical; conditions: kinetic (KIN) reads, read-out: FXIa KIN Inh IC50
Description: Biological Example 1: Factor XIa Inhibition Assay Utilizing a Fluorophore-Quencher Pair Peptide Substrate A fluorescence intensity (FLINT) based assay was used to monitor inhibition of Factor XIa. The peptide substrate, 5Fam-[…]-K5Tamra (purchased from New England Peptide) was chosen based on the FXI sequence. Conversion of zymogen FXI to its activated form, FXIa, occurs by proteolytic cleavage by […] at two sites, Arg146 and Arg180. The custom peptide used in this assay was based on the Arg146 cleavage site of FXI. The peptide substrate was designed with a fluorophore-quencher pair, where the fluorescence is quenched until FXIa cleaves the 8-mer peptide after the Arg residue.
The Factor XIa FLINT assay was used with the following 5Fam-[…]-K5Tamra assay buffer: 50 mM Tris, pH 7.5, 100 mM NaCl, 5 mM CaCl2, 0.1 mg/mL BSA, 0.03% CHAPS. Assay buffer was prepared by mixing all ingredients fresh. 5Fam-[…]-K5Tamra peptide substrate was first prepared at 10 mM in 100% DMSO, then diluted to 3 mM in 100% DMSO. Assay buffer was then added directly to the 3 mM stock of substrate to prepare the 30 μM 2× working concentration (15 μM final concentration). The 2× Factor XIa stock solution was prepared by diluting 6.562 μM stock in 1× assay buffer for a […].
Test compound(s) were run in an 11-point, 3-fold serial dilution with a final top compound concentration of 100 nM. Final DMSO in assay was 2%. FXIa was preincubated with compound for 30-minutes and then substrate was added to initiate the reaction. The assay was run with kinetic (KIN) reads at 5 min intervals over 30 minutes. […] More specifically, the assay was run as follows: • 100 nL of 0.01 mM test compound was dispensed into black 384-well non-binding Greiner BioOne 784900 plate for 0.1 μM final concentration; • 5 μL of 1× assay buffer was dispensed to column 24 (low control) and 5 μL 2× Factor XIa solution was dispensed to columns 1-23 (column 23 high control); • the plate was centrifuged with a “cover” plate at 500 rpm for 1 min • the plate was pre-incubated for 30 minutes at room temperature with plate covered; • 5 μL of 2×5Fam-[…]-K5Tamra peptide substrate was dispensed into the entire plate, columns 1-24; • the plate was centrifuged with a “cover” plate at 500 rpm for 1 min; • the plate was read monitoring fluorescence intensity on the BMG PHERAStar at room temperature, using fluorescence module 485 nm/520 nm.
as §1
% inhibition=((HC−LC)−(compound−LC)/(HC−LC))*100 where LC−low control=mean signal of no Factor XIa or 100% inhibition of Factor XIa; HC−high control=mean signal of Factor XIa+5Fam-[…]-K5Tamra peptide substrate with DMSO only.
as §2
as §3, with “Factor XIa+5Fam-[…]-K5Tamra” for “human kallikrein enzyme+Z-Gly-Pro-Arg-AMC”, “Factor XIa” for “human kallikrein enzyme”, “Factor XIa;” for “human kallikrein enzyme;”

Sequence of human plasma kallikrein (P03952 391-638 limits assumed): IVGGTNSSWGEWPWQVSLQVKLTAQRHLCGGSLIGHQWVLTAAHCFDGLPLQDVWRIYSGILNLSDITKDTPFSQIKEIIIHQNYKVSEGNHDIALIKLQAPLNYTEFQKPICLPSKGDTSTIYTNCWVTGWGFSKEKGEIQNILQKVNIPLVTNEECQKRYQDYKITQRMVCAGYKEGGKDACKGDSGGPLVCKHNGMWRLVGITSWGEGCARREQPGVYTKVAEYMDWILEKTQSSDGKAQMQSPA
Sequence of human plasma kallikrein (P03952 20-390 partner limits assumed): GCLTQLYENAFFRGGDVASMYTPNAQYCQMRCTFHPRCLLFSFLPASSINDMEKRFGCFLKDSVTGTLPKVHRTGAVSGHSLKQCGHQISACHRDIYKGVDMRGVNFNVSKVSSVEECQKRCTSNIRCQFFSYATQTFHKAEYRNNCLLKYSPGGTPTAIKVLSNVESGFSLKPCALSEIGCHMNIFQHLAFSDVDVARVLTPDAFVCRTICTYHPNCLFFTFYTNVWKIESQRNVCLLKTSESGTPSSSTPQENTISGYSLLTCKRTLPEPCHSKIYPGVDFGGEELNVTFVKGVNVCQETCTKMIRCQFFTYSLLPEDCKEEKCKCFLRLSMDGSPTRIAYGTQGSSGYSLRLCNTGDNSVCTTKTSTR
Sequence of Factor XIa (P03951 388-625 limits assumed): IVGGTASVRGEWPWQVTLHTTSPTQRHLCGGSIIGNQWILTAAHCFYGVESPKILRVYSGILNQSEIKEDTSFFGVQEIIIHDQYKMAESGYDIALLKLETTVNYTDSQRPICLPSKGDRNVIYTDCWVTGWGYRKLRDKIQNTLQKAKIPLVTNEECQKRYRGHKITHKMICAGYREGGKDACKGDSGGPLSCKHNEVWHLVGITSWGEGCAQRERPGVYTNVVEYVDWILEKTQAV
Sequence of Factor XIa (P03951 19-387 partner limits assumed): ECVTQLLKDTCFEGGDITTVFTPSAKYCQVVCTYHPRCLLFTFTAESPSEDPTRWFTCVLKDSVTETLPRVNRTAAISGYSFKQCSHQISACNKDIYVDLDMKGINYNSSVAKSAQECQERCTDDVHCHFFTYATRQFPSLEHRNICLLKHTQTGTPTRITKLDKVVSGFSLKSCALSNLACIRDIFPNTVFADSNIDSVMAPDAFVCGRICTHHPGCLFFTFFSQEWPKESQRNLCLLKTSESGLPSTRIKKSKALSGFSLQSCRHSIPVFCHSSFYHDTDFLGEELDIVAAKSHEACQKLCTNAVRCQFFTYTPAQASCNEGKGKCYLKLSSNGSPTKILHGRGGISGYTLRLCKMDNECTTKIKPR

Row | SMILES | IC50 (human plasma kallikrein; unit μM) [µM] | IC50 (Factor XIa; values in nM) [nM] | IC50 (human plasma kallikrein; values in nM) [µM] | IC50 (Factor XIa; unit μM) [nM]
1 | C[C@H]1C[C@H](c2ncc(-c3ccc(N)nc3Cl)[nH]2)n2c1cc(-c1c(-n3cnnn3)ccc(Cl)c1F)cc2=O (relative stereo) [Example 37, (1*S,3*R)-3-(5-(6-Amino-2-chloropyridin-3-yl)-1H-imidazol-2-yl)-7-(3-chloro-2-fluoro-6-(1H-tetrazol-1-yl)phenyl)-1-methyl-2,3-dihydroindolizin-5(1H)-one] | 7.8 | 283 | – | –
2 | C[C@@H]1C[C@H](c2ncc(-c3ccnc(CN)c3)[nH]2)n2c1cc(-c1c(-n3cnnn3)ccc(Cl)c1F)cc2=O (relative stereo) [Example 38, (1*R,3*R)-3-(5-(2-(Aminomethyl)pyridin-4-yl)-1H-imidazol-2-yl)-7-(3-chloro-2-fluoro-6-(1H-tetrazol-1-yl)phenyl)-1-methyl-2,3-dihydroindolizin-5(1H)-one] | – | 42.9 | 0.539 | –
3 | C[C@@H]1C[C@@H](c2ncc(-c3ccnc(F)c3)[nH]2)n2c1cc(-c1c(-n3cnnn3)ccc(Cl)c1F)cc2=O (relative stereo) [Example 45, (1*R,3*S)-7-(3-Chloro-2-fluoro-6-(1H-tetrazol-1-yl)phenyl)-3-(5-(2-fluoropyridin-4-yl)-1H-imidazol-2-yl)-1-methyl-2,3-dihydroindolizin-5(1H)-one] | > 10 | – | – | > 10000
4 | Cc1nc(N)ccc1-c1cnc([C@@H]2C[C@H](C)c3cc(-c4c(-n5cnnn5)ccc(Cl)c4F)cc(=O)n32)[nH]1 (relative stereo) [Example 51, (1*S,3*S)-3-(5-(6-Amino-2-methylpyridin-3-yl)-1H-imidazol-2-yl)-7-(3-chloro-2-fluoro-6-(1H-tetrazol-1-yl)phenyl)-1-methyl-2,3-dihydroindolizin-5(1H)-one] | – | 0.8 | 0.0492 | –
5 | C[C@H]1C[C@@H](c2ncc(-c3cnc(N)c(F)c3)[nH]2)n2c1cc(-c1c(-n3cnnn3)ccc(Cl)c1F)cc2=O (relative stereo) [Example 61, (1*S,3*S)-3-(5-(6-Amino-5-fluoropyridin-3-yl)-1H-imidazol-2-yl)-7-(3-chloro-2-fluoro-6-(1H-tetrazol-1-yl)phenyl)-1-methyl-2,3-dihydroindolizin-5(1H)-one] | > 10 | – | – | > 10000
6 | C[C@@H]1C[C@@H](c2ncc(-c3cnc(N)c(F)c3)[nH]2)n2c1cc(-c1c(-n3cnnn3)ccc(Cl)c1F)cc2=O (relative stereo) [Example 62, (1*R,3*S)-3-(5-(6-amino-5-fluoropyridin-3-yl)-1H-imidazol-2-yl)-7-(3-chloro-2-fluoro-6-(1H-tetrazol-1-yl)phenyl)-1-methyl-2,3-dihydroindolizin-5(1H)-one] | – | 19.6 | 0.0181 | –
7 | COC(=O)Nc1ccc(-c2cnc([C@@H]3C[C@H](C)c4cc(-c5c(-n6cnnn6)ccc(Cl)c5F)cc(=O)n43)[nH]2)cc1 (relative stereo) [Example 64, Methyl(4-(2-((1*S,3*S)-7-(3-chloro-2-fluoro-6-(1H-tetrazol-1-yl)phenyl)-1-methyl-5-oxo-1,2,3,5-tetrahydroindolizin-3-yl)-1H-imidazol-5-yl)phenyl)carbamate] | 5.4 | – | – | 1700
8 | C[C@H]1C[C@@H](c2ncc(-c3ncc(N)nc3C(F)(F)F)[nH]2)n2c1nc(-c1c(-n3cnnn3)ccc(Cl)c1F)cc2=O (relative stereo) [Example 83, (6*S,8*S)-6-(5-(5-Amino-3-(trifluoromethyl)pyrazin-2-yl)-1H-imidazol-2-yl)-2-(3-chloro-2-fluoro-6-(1H-tetrazol-1-yl)phenyl)-8-methyl-7,8-dihydropyrrolo[1,2-a]pyrimidin-4(6H)-one] | – | 56.2 | 0.377 | –
9 | COc1nc(N)cnc1-c1cnc([C@@H]2C[C@H](C)c3nc(-c4c(-n5cnnn5)ccc(Cl)c4F)cc(=O)n32)[nH]1 (relative stereo) [Example 84, (6*S,8*S)-6-(5-(5-Amino-3-methoxypyrazin-2-yl)-1H-imidazol-2-yl)-2-(3-chloro-2-fluoro-6-(1H-tetrazol-1-yl)phenyl)-8-methyl-7,8-dihydropyrrolo[1,2-a]pyrimidin-4(6H)-one] | – | 5.7 | 0.0319 | –
10 | C[C@H]1C[C@H](c2ncc(-c3ncc(N)nc3C(F)F)[nH]2)n2c1nc(-c1c(-n3cnnn3)ccc(Cl)c1F)cc2=O (relative stereo) [Example 85, (6*R,8*S)-6-(5-(5-Amino-3-(difluoromethyl)pyrazin-2-yl)-1H-imidazol-2-yl)-2-(3-chloro-2-fluoro-6-(1H-tetrazol-1-yl)phenyl)-8-methyl-7,8-dihydropyrrolo[1,2-a]pyrimidin-4(6H)-one] | > 1 | 52 | – | –
11 | C[C@H]1C[C@@H](c2ncc(-c3ncc(N)nc3C(F)F)[nH]2)n2c1nc(-c1c(-n3cnnn3)ccc(Cl)c1F)cc2=O (relative stereo) [Example 86, (6*S,8*S)-6-(5-(5-Amino-3-(difluoromethyl)pyrazin-2-yl)-1H-imidazol-2-yl)-2-(3-chloro-2-fluoro-6-(1H-tetrazol-1-yl)phenyl)-8-methyl-7,8-dihydropyrrolo[1,2-a]pyrimidin-4(6H)-one] | – | > 100 | 0.819 | –
12 | C[C@H]1C[C@H](c2ncc(-c3ccnc(N)c3F)[nH]2)n2c1nc(-c1c(-n3cnnn3)ccc(Cl)c1F)cc2=O (relative stereo) [Example 87, (6R*,8S*)-6-(5-(2-amino-3-fluoropyridin-4-yl)-1H-imidazol-2-yl)-2-(3-chloro-2-fluoro-6-(1H-tetrazol-1-yl)phenyl)-8-methyl-7,8-dihydropyrrolo[1,2-a]pyrimidin-4(6H)-one] | – | 1.5 | 0.0277 | –
